The record followed here is ChEMBL document CHEMBL4840362, “Diterpenoids from the whole plants of Croton yunnanensis and their bioactivities” (Bioorg Med Chem, 2021).

The source made the active and inactive calls. The rule behind the calls is not given here.

What all share (format): functional, cell-based
In one assay the test system is MCF7. Description: Cytotoxicity against human MCF7 cells assessed as inhibition of cell growth at 40 uM measured after 48 hrs by MTS assay. For orientation: Formazan colour is commonly taken as a measure of viable cells.
In assay [1] the test system is HL-60. Description: Cytotoxicity against human HL-60 cells assessed as inhibition of cell growth at 40 uM measured after 48 hrs by MTS assay.
Assay [2] relates to A549. In words: Cytotoxicity against human A549 cells assessed as inhibition of cell growth at 40 uM measured after 48 hrs by MTS assay.
For a further assay, the system named is SW480. In words: Cytotoxicity against human SW480 cells assessed as inhibition of cell growth at 40 uM measured after 48 hrs by MTS assay.
The test system of assay [3] is SMMC-7721. Description: Cytotoxicity against human SMMC-7721 cells assessed as inhibition of cell growth at 40 uM measured after 48 hrs by MTS assay.
The next assay has as its system RAW264.7. Description: Antiinflammatory activity against mouse RAW264.7 cells assessed as inhibition of LPS induced nitric oxide production at 50 uM followed by LPS stimulation incubated for 18 hrs by Griess reagent based assay. In general terms: The Griess reaction detects nitrite, a stable product of nitric oxide.
In assay [4] the test system is A549. Description: Cytotoxicity against human A549 cells assessed as inhibition of cell growth measured after 48 hrs by MTS assay. The following applies: A549, 48 h.
Assay [5] relates to SMMC-7721. In words: Cytotoxicity against human SMMC-7721 cells assessed as inhibition of cell growth measured after 48 hrs by MTS assay. The following applies: SMMC-7721, 48 h.
For assay [6], the system named is HL-60. Description: Cytotoxicity against human HL-60 cells assessed as inhibition of cell growth measured after 48 hrs by MTS assay. The note with it: HL-60, 48 h.

On to `COC(=O)C1=CCC[C@H]2C1=CC[C@@H](C)[C@]21C[C@@H](c2ccoc2)OC1=O`, for which the result in the assay with MCF7, in the assay with HL-60 [1], with A549 [2], in the assay with SW480, with SMMC-7721 [3] and with RAW264.7 was inactive.

With `COC(=O)C12C=CC[C@@H]3[C@@H]1CC[C@H](C)[C@@]31C[C@H](c3ccoc3)O[C@H]1O2`, the outcome with MCF7, with HL-60 [1], in the assay with A549 [2], in the assay on SW480, in the assay with SMMC-7721 [3] and with RAW264.7 was inactive.

Regarding `COC(=O)C1=CCC[C@@H]2C13CC[C@H](C)[C@@]21C[C@H](c2ccoc2)O[C@H]1O[C@@H]3O`, the outcome in the assay on MCF7, with HL-60 [1], with A549 [2], in the assay on SW480, in the assay with SMMC-7721 [3] and with RAW264.7 was inactive.

Regarding `CCCCCCCCCC(=O)O[C@@H]1[C@@H](C)[C@@]2(O)[C@@H](C=C(CO)C[C@]3(O)C(=O)C(C)=C[C@@H]23)[C@@H]2C(C)(C)[C@]12OC(C)=O`, the outcome in the assay with MCF7, in the assay on HL-60 [1], in the assay on A549 [2], in the assay with SW480, in the assay with SMMC-7721 [3] and with RAW264.7 was inactive.

Consider `COC(=O)[C@@H]1C=CC[C@@H]2C13CC[C@@H](C)[C@]21C[C@@H](c2ccoc2)O[C@@H]1O3`, for which the outcome in the assay on MCF7, in the assay with HL-60 [1], in the assay on A549 [2], in the assay on SW480, in the assay on SMMC-7721 [3] and in the assay on RAW264.7 was inactive.

On to `COC(=O)c1cccc2c1CC[C@@H](C)[C@]21C[C@@H](c2ccoc2)OC1=O`, for which the outcome in the assay with MCF7, in the assay on HL-60 [1], with A549 [2], in the assay with SW480, with SMMC-7721 [3] and in the assay with RAW264.7 was inactive.

A word on the IC50: it is the midpoint of a concentration-inhibition curve. Turning to `CC(=O)O[C@H]1C(=O)[C@@]2(C)[C@H]([C@H](OC(=O)c3ccccc3)[C@]3(O)C[C@H](OC(=O)[C@H](O)[C@@H](NC(=O)c4ccccc4)c4ccccc4)C(C)=C1C3(C)C)[C@]1(OC(C)=O)CO[C@@H]1C[C@@H]2O` [PACLITAXEL], the values for the IC50 with A549 [4], in the assay on SMMC-7721 [5] and in the assay on HL-60 [6] were below 0.008 µM, 0.143 µM and below 0.008 µM, respectively.

Consider `COc1c(C)cc2c(c1O)[C@]1(C)CCC(=O)C(C)(C)C1=C(O)C2=O`, for which the IC50 was found to be 27.4 µM in the assay with A549 [4], 4.47 µM in the assay with SMMC-7721 [5] and 14.4 µM in the assay on HL-60 [6]. The outcome in the assay on RAW264.7 was inactive.

`COC(=O)C1=CCC[C@@H]2[C@]13CC[C@H](C)[C@@]21C[C@H](c2ccoc2)O[C@H]1OC3=O`: the result in the assay with MCF7, with HL-60 [1], in the assay on A549 [2], in the assay with SW480, with SMMC-7721 [3] and in the assay with RAW264.7 was inactive.

Turning to `COC(=O)C1=CCC[C@H]2C13CC[C@@H](C)[C@]21C[C@@H](c2ccoc2)O[C@@H]1O3`, the outcome in the assay on MCF7, in the assay with HL-60 [1], with A549 [2], in the assay on SW480, in the assay on SMMC-7721 [3] and in the assay on RAW264.7 was inactive.
